Laboratory results published in patent US12041939B2, “Enzyme-loaded pollen-mimicking microparticles for organophosphate detoxification of insect pollinators” (priority 2020, dated 2024).
Where two headings read alike, the source gives them in different places.

Tests used:
[1] = system: acetylcholinesterase (AChE); details: versus malathion; cited from earlier work
honeybees = details: cited from earlier work
bumblebees [2] = experiment: contaminated pollen balls fed without enzyme treatment; details: no enzyme treatment, after one week
AChE = AChE activity assay in homogenized honeybees with paraoxon; assay type: biochemical, honeybee; details: 0.5 mM paraoxon
Excerpt: FIGS. 5A-5F. Characterization of OPT-PIM efficacy through AChE activity assay and bee survival experiments. FIG. 5A is a schematic showing that formation of thiocholine from acetylthiocholine through AChE cleavage can be characterized using 5,5′-dithiobis-2-nitrobenzoic acid (DTNB). DTNB and thiocholine react to form TNB^2-, the absorbance of which can be measured at 412 nm. […] For this experiment, n=9. The positive control is homogenized honeybee cells without any paraoxon treatment; the negative control is homogenized honeybee cells treated with paraoxon but no free OPT or OPT-PIMs treatment. […]. […] FIG. 5E is a plot of exposure to paraoxon (15 μg g^−1 pollen) over 10 days (n=50). FIG. 5F is a plot of exposure to malathion (750 μg g^−1 pollen) over 10 days (n=50). Statistical analysis was performed by using one-way ANOVA tests (FIGS. 5B and 5D). Data are presented as means and error bars represent the standard deviation.
Efficacy and survival studies. The characterization of OPT-PIM efficacy was further validated via quantification of AChE activity when mixed with the above described treatment and paraoxon. […] Acetylthiocholine cleavage via AChE can be used to quantify AChE activity, as the thiocholine product reacts with DTNB to form TNB^2−, which has an absorbance at 412 nm (FIG. 5A). […]

[3] = assay type: biochemical; details: for relative activity in paraoxon hydrolysis: OPT 0.5 mg ml^−1, 0.5 mM paraoxon, normalized to OPT-PIMs at pH 7.4
[4] = assay type: biochemical
Procedure: Further experiments were aimed at better understanding the stability of the detoxifying system under significant thermal stress, as any treatment could experience high summer temperatures when administered to bees. […] Thus, experiments were conducted to determine whether microparticle encapsulation offers any protection from thermal denaturation. […]. […] The foregoing result is important for the potential application of the present design, as it has been shown capable of being administered at elevated temperatures.

[5] = assay type: biochemical; details: methyl paraoxon, visible nitrophenol formation
Excerpt: Considering the loading efficiency decrease at higher PFCs and the intrinsic value of OPT, 5% was selected as a baseline to test OPT loading in PIMs. OPT presented 88.1% PLE (PLC=4.43%) at 5% PFC and 90.1% PLE (PLC=1.81%) at 2% PFC (FIG. 3C). […]. this dilution offered adequate sucrose to render the solution sufficiently attractive to bumblebees for consumption.

bumblebees [6] = experiment: bumblebee survival on malathion-contaminated pollen balls; assay type: in vivo, Bombus impatiens
Excerpt: (§1) FIGS. 5A-5F. Characterization of OPT-PIM efficacy through AChE activity assay and bee survival experiments. FIG. 5A is a schematic showing that formation of thiocholine from acetylthiocholine through AChE cleavage can be characterized using 5,5′-dithiobis-2-nitrobenzoic acid (DTNB). DTNB and thiocholine react to form TNB^2-, the absorbance of which can be measured at 412 nm. […] For this experiment, n=9. The positive control is homogenized honeybee cells without any paraoxon treatment; the negative control is homogenized honeybee cells treated with paraoxon but no free OPT or OPT-PIMs treatment. […] FIG. 5E is a plot of exposure to paraoxon (15 μg g^−1 pollen) over 10 days (n=50). FIG. 5F is a plot of exposure to malathion (750 μg g^−1 pollen) over 10 days (n=50). Statistical analysis was performed by using one-way ANOVA tests (FIGS. 5B and 5D). Data are presented as means and error bars represent the standard deviation.
(§2) Bumblebees consume approximately […] depending on body mass. Based on this figure, pollen balls were initially formed containing 0.432 μg g^−1 paraoxon and 9.383 μg g^−1 malathion to feed without enzyme treatment as a negative control. […] Pollen balls were tested containing 50 μg g^−1 paraoxon over 12 hours to measure the OPT-PIM impact against acute exposure.

[7] = assay type: biochemical; details: room temperature (25° C.)
Procedure: To gauge the time taken for treatment to lose functionality, bioactivity of each group treatment relative to OPT-PIMs was measured over time when kept at room temperature (25° C.). […] OPT-PIMs stored at 4° C. maintained almost 100% activity after 14 d (FIG. 3G). The microparticle's capacity for long-term bioactivity and protein sequestration indicates a practical shelf life of the design. Other enzyme-engineering efforts, such as genetic engineering of the catalytic and binding pockets, introducing additional chemical functionalities, such as disulfide bridges or fluorine moieties, or incorporation of additives such as sugars, polyols, detergents, polymers and amino acids, may improve the catalytic efficiency of OPT and further enhance its storage stability.

[8] = cited from earlier work
[9] = malathion hydrolysis assay (DTNB); assay type: biochemical; details: OPT 0.5 mg ml^−1, 0.44 mM malathion
[10] = cited from earlier work; remark: listed apart in the source
bumblebees [11] = assay type: in vivo, Bombus impatiens
Excerpt: as §1, §2

CCOC(=O)CC(SP(=O)(OC)OC)C(=O)OCC (centres unmarked) [Malaoxon]
strength of AChE inhibition relative to malathion [1]: 1000 fold

CCOC(=O)CC(SP(=S)(OC)OC)C(=O)OCC (centres unmarked) [malathion]
oral LD50 (honeybees): 0.38 μg/bee
oral LD50 for honeybees (honeybees): 0.38 μg per bee
health effect of contaminated pollen balls (bumblebees [2]; 9.383 μg g^−1 malathion in pollen balls): no health deterioration

CCOP(=O)(OCC)Oc1ccc([N+](=O)[O-])cc1 [paraoxon]
relative AChE activity reduction (AChE; no free OPT or OPT-PIMs treatment (negative control)): ~72%
oral LD50 for honeybees (honeybees): 0.0175 μg per bee
health effect of contaminated pollen balls (bumblebees [2]; 0.432 μg g^−1 paraoxon in pollen balls): no health deterioration

CCOP(=S)(OCC)Oc1ccc([N+](=O)[O-])cc1 [parathion]
oral LD50 (honeybees): 0.175 μg/bee

amidohydrolase phosphotriesterase [free OPT]
relative activity in paraoxon hydrolysis ([3]; pH 4.8): 1.7%
relative activity in paraoxon hydrolysis ([3]; pH 7.4): 49.7%
Km ([3]; paraoxon, in 2 g ml^−1 sucrose): 4.8 mM
maximum velocity (Vmax) ([3]; paraoxon, in 2 g ml^−1 sucrose): 0.13 mM/min
relative activity in paraoxon hydrolysis after incubation ([4]; 30° C., relative to OPT-PIMs at 30° C.): half the bioactivity of OPT-PIMs
relative activity in paraoxon hydrolysis after incubation ([4]; 50° C., normalized to OPT-PIMs at 30° C.): 36.5%
relative activity in paraoxon hydrolysis after incubation ([4]; temperature>60° C., normalized to OPT-PIMs at 30° C.): 5.0%
OPT concentration sufficient to initiate rapid hydrolysis [5]: 0.5 mg/mL
mortality (bumblebees [6]; 750 μg g^−1 malathion pollen balls, after 5 days): 100%
survival (bumblebees [6]; microcolonies fed malathion-contaminated pollen patties, within/after 5 days (overview)): 0%
activity retained on storage ([7]; after 7 days): ~30%
activity retained on storage ([7]; after 14 days): < 10%
Kcat Km^−1 [8]: 7.6e+07 M⁻¹ s⁻¹
relative activity in malathion hydrolysis ([9]; pH 4.8): 0.6%
relative activity in malathion hydrolysis ([9]; pH 7.4): 17.1%
AChE activity retained less than OPT-PIMs-treated samples (AChE): 18.8%
deactivation temperature ([10]; Co2+ OPT complex, pH 8.0-9.5): 60 °C
temperature at which thermostability is maintained ([10]; Co2+ OPT complex, pH 8.0-9.5): less than 45 °C
activity relative to maximum potential ([10]; pH 7.0): less than half of its maximum potential
mortality (bumblebees [11]; 15 μg g^−1 paraoxon pollen balls, 50 μg ml^−1 OPT treatments, after 5 days): 100%
fatalities (bumblebees [11]; 50 μg g^−1 paraoxon pollen balls, 12 hours): 62.5%
